Measured values published in US6444434B1, “FVIIa/TF activity inhibiting compounds” (Novo Nordisk A/S, priority 1999, dated 2002).
pIC50: −log10 of the molar value. Read-outs that look alike come from different tables or passages of the source.

Experiments:
FXa = FXa (Homo sapiens, UniProt P00742); assay: FXa amidolytic assay; format: biochemical; details: 1 nM FXa, 1 mM S-2765; read-out: FX amidolytic IC50 FX
Experimental: (§1) Compound solutions and buffer are the same as in the above FX activation assay. 170 microliters of FXa (1.17 nM in buffer), 10 microliters of test compound (various concentrations in DMSO) and 20 microliters of substrate S-2765 (10 mM in water) is mixed in a microtiter plate well. This gives-final concentrations of FXa and S-2765 of 1 nM and 1 mM, respectively. The absorbance at 405 nm is measured continuously for 20 minutes. The degree of inhibition is calculated from the slope of the absorbance curve compared to the curve obtained when using DMSO without test compound.
as §1, with “gives final” for “gives-final”

[1] = biological target: T1, FVIIa/TF-catalyzed activation of FX (Homo sapiens, UniProt P08709); assay: FX activation assay (FVIIa/TF-catalyzed FX activation); format: biochemical; details: for pIC50: 100 pM FVIIa, 5 pM TF, 175 nM FX, FXa read with S-2765, read-out: TF/FVII/FX (FX activation) IC50 FXa; for IC50: second part of table, Examples 14-22, read-out: IC50 (μM) FX activation by FVIIa/TF
T1 construct: Single-chain FVII may be converted to two-chain FVIIa by factor Xa
T1 sequence (P13726 33-295, one chain of several, further chain): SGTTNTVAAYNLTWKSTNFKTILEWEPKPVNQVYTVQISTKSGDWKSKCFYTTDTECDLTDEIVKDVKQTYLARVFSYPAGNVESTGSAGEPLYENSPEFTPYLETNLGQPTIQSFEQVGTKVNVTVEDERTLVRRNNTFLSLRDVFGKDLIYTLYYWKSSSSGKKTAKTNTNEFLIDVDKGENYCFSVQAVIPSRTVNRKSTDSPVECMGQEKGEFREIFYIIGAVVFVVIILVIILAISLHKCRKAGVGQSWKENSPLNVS

[2] = system: citrated normal human plasma; assay: FVIIa/TF-initiated plasma clotting assay; details: ratio of clotting time with/without compound; final compound concentration 0.33 mM; thromboplastin (Innovin)
Experimental: The test compounds, 20 mM in DMSO, are diluted in citrated normal human plasma just before the analysis (1+19) and placed in the sample carousel. 55 μl sample (compound in plasma) is mixed with 55 μl of thromboplastin (Innovin, Dade) and incubated for 5 min. The clotting reaction is started by adding 55 μl of a 25-mM CaCl2 solution, yielding a final compound concentration of 0.33 mM. The clotting time is measured using an ACL 300 R coagulometer. The ratio between the clotting time in the presence and absence of test compound is used to quantify the anticoagulant efficiency.

TF/FVIIa = biological target: T2, TF/FVIIa (Homo sapiens, UniProt P08709); assay: FVIIa/TF amidolytic assay; format: biochemical; details: 10 nM FVIIa, 25 nM soluble TF, 1 mM S-2288
T2 construct: Single-chain FVII may be converted to two-chain FVIIa by factor Xa; 20 microliters of soluble TF (250 nM in buffer)
T2 sequence (P08709 61-212 limits assumed): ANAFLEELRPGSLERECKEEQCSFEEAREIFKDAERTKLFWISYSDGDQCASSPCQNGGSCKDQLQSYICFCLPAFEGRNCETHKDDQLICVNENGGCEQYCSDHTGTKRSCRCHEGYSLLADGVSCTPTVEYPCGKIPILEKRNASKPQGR
T2 sequence (P08709 213-466 limits assumed): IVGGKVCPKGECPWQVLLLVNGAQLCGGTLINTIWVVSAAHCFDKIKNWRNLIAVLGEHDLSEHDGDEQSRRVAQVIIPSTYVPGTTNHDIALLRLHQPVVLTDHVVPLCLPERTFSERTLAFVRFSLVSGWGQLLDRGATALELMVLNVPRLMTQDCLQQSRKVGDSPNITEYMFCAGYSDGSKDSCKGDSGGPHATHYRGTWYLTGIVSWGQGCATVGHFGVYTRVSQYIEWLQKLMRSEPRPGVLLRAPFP
Experimental: (§2) Compound solutions and buffer are the same as in the above FX activation assay. 150 microliters of FVIIa (13.3 nM in buffer), 20 microliters of soluble TF. (250 nM in buffer), 10 microliters of test compound (various concentrations in DMSO) and 20 microliters of substrate S-2288 (10 mM in water) is mixed in microtiter plate well. This gives final concentrations of FVII(a, TF and S-2288 of 10 nM, 25 nM and 1 mM, respectively. The absorbance at 405 nm is measured continuously for 20 minutes. The degree of inhibition is calculated from the slope of the absorbance curve compared to the curve obtained when using DMSO without test compound.
as §2, with “TF” for “TF.”, “DM80)” for “DMSO)”, “FVIIa,” for “FVII(a,”

[3] = biological target: T3, FVIIa/TF-catalyzed activation of FX (Homo sapiens, UniProt P08709+P13726); assay: FX activation assay (FVIIa/TF-catalyzed FX activation); format: biochemical; details: second part of table, Examples 14-22
T3 construct: Single-chain FVII may be converted to two-chain FVIIa by factor Xa
T3 sequence (P13726 33-295, one chain of several): as the sequence (P13726 33-295, one chain of several, further chain) above

Chain of FXa (P00742 41-179 limits assumed): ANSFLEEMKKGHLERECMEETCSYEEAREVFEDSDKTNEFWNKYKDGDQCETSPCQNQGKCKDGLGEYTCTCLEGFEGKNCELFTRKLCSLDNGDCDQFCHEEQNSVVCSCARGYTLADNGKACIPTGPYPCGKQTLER
Chain of FXa (P00742 235-488 limits assumed): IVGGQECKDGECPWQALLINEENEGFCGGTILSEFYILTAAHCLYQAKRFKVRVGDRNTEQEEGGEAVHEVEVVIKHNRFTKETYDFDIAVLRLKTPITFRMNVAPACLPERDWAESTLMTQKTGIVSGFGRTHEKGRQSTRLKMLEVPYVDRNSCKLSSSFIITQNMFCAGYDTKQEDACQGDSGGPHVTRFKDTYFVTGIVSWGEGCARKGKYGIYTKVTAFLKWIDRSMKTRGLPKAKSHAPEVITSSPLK

Row | Structure (SMILES) | pIC50 (FXa) | pIC50 [1] | pIC50 (TF/FVIIa) | IC50 [1] [µM] | Clot ratio [2] | IC50 [3] [µM]
1 | N=c1n(CCN2CCCC2)c2ccccc2n1CC(O)COc1ccc(Cl)cc1 (stereo not drawn) [Example 5, 1-(4-Chloro-phenoxy)-3-[2-imino-3-(2-pyrrolidin-1-yl-ethyl)-2,3-dihydro-benzoimidazol-1-yl]-propan-2-ol] | < 3.70 | 4.74 | < 3.70 |  | >3 | 
2 | CN(C)CCNCC(O)CN1CCn2c3c(c4cc(C5CCCCC5)ccc42)CCCC31 (stereo not drawn) [Example 6, 1-(8-Cyclohexyl-1,2,3a,4,5,6-hexahydro-pyrazino[3,2,1-jk]carbazol-3-yl)-3-(2-dimethylamino-ethylamino)-propan-2-ol] | < 3.70 | 4.77 | < 3.70 |  | >3 | 
3 | CN1CCN(CC(=O)N2CCn3c4c(c5cc(C6CCCCC6)ccc53)CCCC42)CC1 (stereo not drawn) [Example 8, 1-(8-Cyclohexyl-1,2,3a,4,5,6-hexahydro-pyrazino[3,2,1-jk]carbazol-3-yl)-2-(4-methyl-piperazin-1-yl)-ethanone] | < 3.70 | 4.85 | < 3.70 |  | 2.72 | 
4 | CC(C)Cc1ccc(C(C)CNC(=N)C(C)c2ccc(CC(C)C)cc2)cc1 (stereo not drawn) [Example 9, 2-(4-Isobutyl-phenyl)-N-[2-(4-isobutyl-phenyl)-propyl]-propionamidine] | < 3.70 | 4.96 | < 3.70 |  | >3 | 
5 | CCCCCCCCCCCCCCCCn1c2c(c(=N)c3c1CCC3)CCC2 [Example 10, 4-Hexadecyl-2,3,4,5,6,7-hexahydro-1H-4-aza-s-indacen-8-ylideneamine] | < 3.70 | 5.11 | < 3.70 |  | 2.84 | 
6 | CCN(CC)CCCC(C)Nc1nc(C=Cc2ccc(Br)cc2Br)nc2cc(Cl)ccc12 (stereo not drawn) [Example 15, N4-{7-chloro-2-[2-(2,4-dibromo-phenyl)-vinyl]-quinazolin-4-yl}-N1,N1-diethyl-pentane-1,4-diamine] |  |  |  | < 20 |  | 
7 | NC(CC(=O)NC(Cc1c[nH]c2ccccc12)C(=O)O)(P(=O)(O)O)P(=O)(O)O (stereo not drawn) [Example 19, 2-(3-amino-3,3-bis-phosphono-propionylamino)-3-(1H-indol-3-yl)-propionic acid] |  |  |  | < 20 |  | 
8 | CN(C)CCc1cn(Cc2ccc(Cl)c(Cl)c2)c2cc(Cl)c(OCc3ccccc3)cc12 [Example 21, N,N-dimethyl-1-(3,4-dichlorobenzyl)-5-benzyloxy-6-chlorotrypamine] |  |  |  |  |  | < 20

Now from value to compound, other results behind:

Row | pIC50 (FXa) | pIC50 [1] | pIC50 (TF/FVIIa) | IC50 [1] [µM] | Structure (SMILES) | Clot ratio [2] | IC50 [3] [µM]
9 | < 3.70 | 4.77 | < 3.70 |  | COc1cccc(/C=N\Nc2nc(Nc3ccccc3)nc(Nc3ccc(C)cc3C)n2)c1O [Example 7, 2-{[4-(2,4-Dimethyl-phenylamino)-6-phenylamino-[1,3,5]triazin-2-yl]-hydrazonomethyl}-6-methoxy-phenol] | 1.03 | 
10 | < 3.70 | 5.11 | < 3.70 |  | CCC(=C(c1ccc(OC)cc1)c1ccc(OC)cc1)c1cn(CC(O)CN2CCCC2)c2ccccc12 (stereo not drawn) [Example 11, 1-{3-[1-Ethyl-2,2-bis-(4-methoxy-phenyl)-vinyl]-indol-1-yl}-3-pyrrolidin-1-yl-propan-2-ol] | 1.64 | 
11 | < 3.70 | 5.15 | < 3.70 |  | COc1ccc(/C=C2\c3ccccc3-c3ccc(C(=O)CCCCN4CCCCC4)cc32)cc1OC [Example 12, 1-[9-(3,4-Dimethoxy-benzylidene)-9H-fluoren-2-yl]-5-piperidin-1-yl-pentan-1-one] | 1.2 | 
12 | < 3.70 | 5.24 | < 3.70 |  | CCCCCCCOc1ccc(/C(=N\C2CC(C)(C)NC(C)(C)C2)c2ccccc2)cc1 [Example 13, [(4-Heptyloxy-phenyl)-phenyl-methylene]-(2,2,6,6-tetramethylpiperidin-4-yl)-amine] | 2.06 | 
13 |  |  |  | < 20 | CCN(CC)CCCC(C)Nc1nc(/C=C/C=C/c2ccccc2)nc2cc(Cl)ccc12 (stereo not drawn) [Example 14, N-[7-chloro-2-(4-phenyl-buta-1,3-dienyl)-quinazolin-4-yl]-5-N,N-diethyl-aminopentane-2-amine] |  | 
14 |  |  |  | < 20 | CCN(CC)CCCC(C)Nc1nc(/C=C/c2ccc(Br)cc2)nc2cc(Cl)ccc12 (stereo not drawn) [Example 16, N4-{2-[2-(4-bromo-phenyl)-vinyl]-7-chloro-quinazolin-4-yl}-N1,N1-diethyl-pentane-1,4-diamine] |  | 
15 |  |  |  | < 20 | CN(C)CCCN(C)Cc1cn(Cc2ccc(Cl)c(Cl)c2)c2cc(Cl)c(OCc3ccccc3)cc12 [Example 17, N-[5-benzyloxy-6-chloro-1-(3,4-dichlorobenzyl)-1H-indol-3-ylmethyl]-N,N′N′-trimethylpropan-1,3-diamine] |  | 
16 |  |  |  | < 20 | CN(C)C1CCN(Cc2c[nH]c3ccc(OCc4ccccc4)cc23)CC1 [Example 18, N-[5-benzyloxy-1H-indol-3-ylmethyl]-4-dimethylaminopiperidine] |  | 
17 |  |  |  | < 20 | CN(C)CCCNC(=O)c1cc2cc(OCc3ccccc3)ccc2n1Cc1ccc(Cl)c(Cl)c1 [Example 20] |  | 
18 |  |  |  | < 20 | CCC(=C(c1ccc(OC)cc1)c1ccc(OC)cc1)c1cn(CC(O)CN2CCCC2)c2ccccc12 (stereo not drawn) [Example 22, 1-{3-[1-ethyl-2,2-bis-(4-methoxy-phenyl)-vinyl]-indol-1-yl}-3-pyrrolidin-1-yl-propan-2-ol] |  | 
